Data: patent US20150133434A1, “Compositions and Methods for Reactivating Latent Immunodeficiency Virus” (priority 2012, published 2015)

How the values were obtained:
[1] = test system: HIV LTR-GFP in J-Lat A72 cells; test: JQ1 response in A72 cells after shRNA knockdown (cyclin T1, BRD2, BRD4), flow cytometry of GFP; format: cell-based
Method: ShRNA-expressing lentiviral vectors were purchased from Open Biosystems. The plasmids TRCN0000006308 and TRCN0000006310 were used to deplete BRD2, plasmids TRCN0000021424 and TRCN0000021428 were used to deplete BRD4, and plasmids TRCN0000013673 and TRCN0000013675 were used to deplete cyclin T1. The pLKO.1 vector containing scramble shRNA was used as control. […]. J-Lat A72 cells (containing a LTR-GFP construct) were spininfected with virus (1 ng of p24 per 10^6 cells) containing shRNAs against BRD2, BRD4, cyclin T1 or nontargeting control shRNAs and were selected with puromycin (2 μg/ml; Sigma) (Naldini L, et al., Science 1996; 272:263-7). After 4 days of selection, cells were treated with the indicated concentration of drugs. The percentage of GFP^+ cells was determined after 18 h using a MACSQuant VYB FACS analyzer (Miltenyi Biotech GmbH). Cell viability was monitored by forward and side scatter analysis. Analysis was conducted on 3×10,000 live cells per condition, and all experiments were independently repeated at least three times. Data were analyzed using FlowJo 9.4 (Tree Star).
As transcription elongation at the HIV promoter uniquely depends on P-TEFb, whether the JQ1 effect in latent cells requires intact P-TEFb was determined. Short hairpin RNAs (shRNAs) directed against cyclin T1, an important component of P-TEFb, were introduced into A72 cells with lentiviral vectors. Knockdown of cyclin T1 yielded lower basal levels in GFP^+ cells than control cells expressing nontargeting shRNAs (FIG. 25A).
To test the functional relevance of BET proteins in HIV latency, lentiviral shRNA knockdown studies of endogenous BRD2 and BRD4 proteins were performed in A72 cells lacking Tat. BRD2 is a close relative of BRD4, but lacks a C-terminal PID domain. […] BRD2 binds JQ1 and other BET inhibitors, albeit with lower binding affinities than BRD4.
(A) A72 cells were infected with virus containing shRNA constructs targeting cyclin T1 or a nontargeting control. Knockdown of cyclin T1 protein levels are shown by immunoblotting with cyclin T1 or the control α-tubulin antibody. At 4 days after infection, cells were treated with JQ1 or DMSO at the indicated concentrations for 18 h and analyzed by flow cytometry. […] Average (±SD) of three experiments is shown. (B) A72 cells were infected with virus containing shRNA constructs targeting BRD2, BRD4 or a nontargeting control. At 4 days after infection, cells were treated with JQ1 or DMSO at the indicated concentrations for 18 h and examined by flow cytometry. […] Results represent average (±SD) of three experiments. Knockdown of BRD2 and BRD4 protein levels were confirmed by immunoblotting with BRD2 and BRD4 antibodies or the control α-tubulin. All treatments in (A) and (B) on the X axis are in μM.

[2] = test system: latent HIV (clone R7/E-/GFP) in Jurkat T cells; test: Reactivation of latent HIV in polyclonal Jurkat T cells (clone R7/E-/GFP), flow cytometry of GFP; format: cell-based, HIV-1
Method: A polyclonal population of Jurkat T cells containing latent HIV (clone R7/E-/GFP) was treated with increasing amounts of JQ1. This viral clone contains a frameshift mutation in the viral Env gene to prevent viral spread and expresses GFP in the Nef open reading frame, which allows separation of actively infected GFP^+ from GFP^− cells by cell sorting. GFP^− cells, which are mostly uninfected but contain a small fraction of latently infected cells with silenced HIV transcription, were treated with JQ1. Activation of transcription was measured by flow cytometry of GFP. […] Stimulation of cells with JQ1 produced up to fivefold more GFP-expressing cells than control-treated cells.
HIV clones R7/E-/GFP and NL4-3/E-/GFP-IRES-nef were derived from pR7-GFP and pNLENG1-EGFP by mutating the Env gene by inserting an early stop codon in the NdeI site. […]. Jurkat cells were spininfected with 25 ng of p24 per 10^6 cells, and GFP^− cells where collected in two rounds of cell sorting 5 and 15 days after infection. The expanded population of GFP^− cells, composed of uninfected and latently infected cells, was seeded in 96-well plates and treated with the indicated concentration of drugs in duplicates. The percentage of GFP^+ cells was detected after 24 h at the MACSQuant VYB FACS analyzer. Data are expressed as the mean percentage of GFP^+ cells, subtracting the average percentage of spontaneous GFP-reactivation in the untreated samples. (A) Jurkat cells containing latent R7/E-/GFP virus were treated with JQ1 or (R)-JQ1 in combination with Prostratin (0.5 μM), SAHA (2.5 μM), TNFα (1 ng/μl), or control at the indicated concentrations for 18 h, followed by flow cytometry analysis. […] Results represent average of two independent experiments. All treatments in (A) and (B) on the X axis are in μM.

SMILES: Cc1sc2c(c1C)C(c1ccc(Cl)cc1)=N[C@@H](CC(=O)OC(C)(C)C)c1nnc(C)n1-2 [JQ1, tert-Butyl 2-((6S)-4-(4-chlorophenyl)-2,3,9-trimethyl-6H-thieno[3,2-f][1,2,4]triazolo[4,3-a][1,4]diazepin-6-yl)acetate]
- activation of the HIV LTR in response to JQ1 ([1]; BRD2 knockdown cells): twofold
- response to JQ1 ([1]; BRD4 knockdown cells): not affected
- activation of the HIV LTR in response to JQ1 ([1]; control cells (nontargeting shRNA)): 3.3 fold
- cells responding with GFP expression to JQ1, relative to control cells ([1]; cyclin T1 knockdown cells): half as many cells responded
- GFP-expressing cells relative to control-treated cells ([2]; JQ1 alone): up to fivefold
- effect of adding JQ1 with SAHA ([2]; co-treatment with SAHA 2.5 μM, FIG. 20A, B (both viral clones)): no additive or synergistic effects
- effect of co-treatment with TNFα on the JQ1 effect ([2]; co-treatment with TNFα, FIG. 20A, B (both viral clones)): very modest enhancement
- effect of adding JQ1 with prostratin ([2]; co-treatment with prostratin 0.5 μM, FIG. 20A, B (both viral clones)): Enhanced activation
- reactivation of HIV-1 (GFP+ cells) ([2]; compound alone, increasing amounts): reactivated HIV-1 in a dose-dependent manner
